Results: ChEMBL document CHEMBL1933004, “Novel (S)-1,2,3,4-tetrahydroisoquinoline-3-carboxylic acids: peroxisome proliferator-activated receptor γ selective agonists with protein-tyrosine phosphatase 1B inhibition” (Bioorg Med Chem, 2012)

Columns and labels:
[1] = target: T1, Peroxisome proliferator-activated receptor gamma (Homo sapiens, UniProt P37231); assay: Transactivation of human full length PPARgamma expressed in COS1 cells co-transfected with RXRalpha after 24 hrs by luciferase reporter gene assay; assay type: cell-based, COS-1
T1 sequence (P37231 whole entry): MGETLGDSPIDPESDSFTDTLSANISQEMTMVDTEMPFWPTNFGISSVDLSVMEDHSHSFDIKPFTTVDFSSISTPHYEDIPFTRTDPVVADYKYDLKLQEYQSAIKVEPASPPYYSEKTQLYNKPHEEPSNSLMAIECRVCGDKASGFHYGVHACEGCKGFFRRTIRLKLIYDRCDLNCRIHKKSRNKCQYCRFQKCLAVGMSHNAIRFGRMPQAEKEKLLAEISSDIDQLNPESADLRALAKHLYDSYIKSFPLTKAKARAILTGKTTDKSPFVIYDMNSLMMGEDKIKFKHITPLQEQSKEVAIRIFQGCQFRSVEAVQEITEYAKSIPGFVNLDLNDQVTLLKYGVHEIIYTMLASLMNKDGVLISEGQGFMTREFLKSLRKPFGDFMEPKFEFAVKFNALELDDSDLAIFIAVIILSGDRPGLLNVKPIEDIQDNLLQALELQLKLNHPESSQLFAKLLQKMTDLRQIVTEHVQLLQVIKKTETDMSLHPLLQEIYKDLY

[2] = target: T2, Peroxisome proliferator-activated receptor alpha (Homo sapiens, UniProt Q07869); assay: Transactivation of human full length PPARalpha expressed in COS1 cells co-transfected with RXRalpha after 24 hrs by luciferase reporter gene assay; assay type: cell-based, COS-1
T2 sequence (Q07869 whole entry): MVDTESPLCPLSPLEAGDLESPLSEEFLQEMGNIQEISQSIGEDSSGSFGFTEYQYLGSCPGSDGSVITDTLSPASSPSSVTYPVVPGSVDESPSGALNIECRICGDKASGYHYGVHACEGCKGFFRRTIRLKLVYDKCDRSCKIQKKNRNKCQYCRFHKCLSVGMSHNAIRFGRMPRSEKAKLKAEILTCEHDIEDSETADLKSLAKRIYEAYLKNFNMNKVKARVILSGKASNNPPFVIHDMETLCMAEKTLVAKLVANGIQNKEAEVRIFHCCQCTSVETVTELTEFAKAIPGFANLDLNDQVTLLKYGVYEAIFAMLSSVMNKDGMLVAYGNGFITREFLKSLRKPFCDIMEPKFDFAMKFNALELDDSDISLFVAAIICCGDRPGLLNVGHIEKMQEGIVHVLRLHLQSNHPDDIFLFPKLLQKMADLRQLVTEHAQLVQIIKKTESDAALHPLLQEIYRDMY

[3] = target: T3, Peroxisome proliferator-activated receptor gamma (Homo sapiens) (UniProt P37231); assay: Transactivation of human full length PPARgamma expressed in COS1 cells co-transfected with RXRalpha after 24 hrs by luciferase reporter gene assay relative to farglitazar; assay type: cell-based; details: COS-1
T3 sequence (whole entry): T1 sequence (P37231 whole entry)

[4] = target: T4, Peroxisome proliferator-activated receptor alpha (Homo sapiens) (UniProt Q07869); assay: Transactivation of human full length PPARalpha expressed in COS1 cells co-transfected with RXRalpha after 24 hrs by luciferase reporter gene assay relative to WY14643; assay type: cell-based; details: COS-1
T4 sequence (whole entry): T2 sequence (Q07869 whole entry)

[5] = target: T5, Tyrosine-protein phosphatase non-receptor type 1 (Homo sapiens, UniProt P18031); assay: Inhibition of PTB1B using pNPP as substrate after 30 mins
T5 sequence (P18031 whole entry): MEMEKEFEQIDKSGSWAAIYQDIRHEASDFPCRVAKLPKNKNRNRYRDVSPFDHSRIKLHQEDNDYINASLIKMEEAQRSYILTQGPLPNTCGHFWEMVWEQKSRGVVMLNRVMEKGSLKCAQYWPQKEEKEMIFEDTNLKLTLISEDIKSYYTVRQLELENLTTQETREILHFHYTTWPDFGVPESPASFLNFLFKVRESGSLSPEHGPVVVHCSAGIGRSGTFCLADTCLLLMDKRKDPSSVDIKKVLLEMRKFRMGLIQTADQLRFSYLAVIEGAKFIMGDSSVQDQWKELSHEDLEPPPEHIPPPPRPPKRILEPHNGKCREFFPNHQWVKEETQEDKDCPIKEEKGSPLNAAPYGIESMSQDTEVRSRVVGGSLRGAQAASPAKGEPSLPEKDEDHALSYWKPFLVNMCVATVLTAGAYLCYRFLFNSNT

Mus musculus = assay: Hypoglycemic activity in diabetic KK-Ay mouse model assessed as decrease in glucose level at 10 mg/kg, po qd for 4 days relative to untreated control; assay type: functional; design: scale not given: the % may be the effect or the level left

Compound | EC50 [1] [nM] | EC50 [2] [nM] | Emax [3] [%] | Emax [4] [%] | IC50 [5] [nM] | Activity (Mus musculus) [%]
CC(C)(C)N.CC(C)=C/C=C/C(=O)N1Cc2cc(OCCc3nc(/C=C/CCC(C)C)oc3C)ccc2C[C@H]1C(=O)O | 30 | 100 | 85 | 64 | 950 | 44
C=CCCCC(=O)N1Cc2cc(OCCc3nc(/C=C/CCC(C)C)oc3C)ccc2C[C@H]1C(=O)O.CC(C)(C)N | 50 |  | 106 | < 50 | 1430 | 22
CC(C)(C)N.Cc1oc(/C=C/CCC(C)C)nc1CCOc1ccc2c(c1)CN(C(=O)/C=C/c1cccs1)[C@H](C(=O)O)C2 | 40 |  | 99 | < 50 | 1050 | 45
C/C=C/C=C/C(=O)N1Cc2cc(OCCc3nc(/C(=C/C)CC)oc3C)ccc2C[C@H]1C(=O)O.CC(C)(C)N | 350 |  | 91 | < 50 | 5600 | 47
CC(C)(C)N.CCC/C=C/C(=O)N1Cc2cc(OCCc3nc(/C=C/CCC(C)C)oc3C)ccc2C[C@H]1C(=O)O | 30 |  | 96 | < 50 | 1180 | 50
C/C=C/C=C/C(=O)N1Cc2cc(OCCc3nc(CCCCC(C)C)oc3C)ccc2C[C@H]1C(=O)O.CC(C)(C)N | 110 |  | 89 | < 50 | 1150 | 17
CC(C)(C)N.CCC(O)/C=C/C(=O)N1Cc2cc(OCCc3nc(/C=C/CCC(C)C)oc3C)ccc2C[C@H]1C(=O)O (stereo partly specified) | 240 |  | 104 | < 50 | 6200 | 19
C/C=C/C=C/C(=O)N1Cc2cc(OCCc3nc(/C=C/C(CC)CC)oc3C)ccc2C[C@H]1C(=O)O.CC(C)(C)N | 760 |  | 90 | 66 | 1300 | 18
C/C=C/C=C/C(=O)N1Cc2cc(OCCc3nc(/C=C/CC(C)C)oc3C)ccc2C[C@H]1C(=O)O.CC(C)(C)N | 160 | 240 | 103 | 81 | 2000 | 58
C/C=C/C=C/C(=O)N1Cc2cc(OCCc3nc(/C=C/C(C)(C)C)oc3C)ccc2C[C@H]1C(=O)O.CC(C)(C)N | 540 |  | 97 | < 50 | 2250 | 23
CC(C)(C)N.CCOC/C=C/C(=O)N1Cc2cc(OCCc3nc(/C=C/CCC(C)C)oc3C)ccc2C[C@H]1C(=O)O | 90 |  | 108 | < 50 | 3800 | 3
CC(C)(C)N.CCOCCC(=O)N1Cc2cc(OCCc3nc(/C=C/CCC(C)C)oc3C)ccc2C[C@H]1C(=O)O | 70 |  | 86 | < 50 | 3350 | -13
C/C=C/C=C/C(=O)N1Cc2cc(OCCc3nc(/C=C/CC(C)(C)C)oc3C)ccc2C[C@H]1C(=O)O.CC(C)(C)N | 160 |  | 92 | < 50 | 1950 | 39
CC(C)(C)N.Cc1oc(/C=C/CCC(C)C)nc1CCOc1ccc2c(c1)CN(C(=O)/C=C/c1ccco1)[C@H](C(=O)O)C2 | 70 |  | 102 | < 50 | 570 | 29
CC(C)(C)N.CCCCCC(=O)N1Cc2cc(OCCc3nc(/C=C/CCC(C)C)oc3C)ccc2C[C@H]1C(=O)O | 20 |  | 94 | < 50 | 940 | 30
C/C=C/C=C/C(=O)N1Cc2cc(OCCc3nc(/C=C/C(C)CCC)oc3C)ccc2C[C@H]1C(=O)O.CC(C)(C)N (stereo partly specified) | 310 |  | 82 | < 50 | 1410 | 71
CC(C)(C)N.Cc1oc(/C=C/CCC(C)C)nc1CCOc1ccc2c(c1)CN(C(=O)/C=C/C1CC1)[C@H](C(=O)O)C2 | 70 |  | 84 | < 50 | 1050 | 27
C=CCCC(=O)N1Cc2cc(OCCc3nc(/C=C/CCC(C)C)oc3C)ccc2C[C@H]1C(=O)O.CC(C)(C)N | 40 |  | 105 | < 50 | 1690 | 45
C/C=C/C=C(\C)C(=O)N1Cc2cc(OCCc3nc(/C=C/CCC(C)C)oc3C)ccc2C[C@H]1C(=O)O.CC(C)(C)N | 50 |  | 98 | < 50 | 2030 | 21
C/C=C/C=C/C(=O)N1Cc2cc(OCCc3nc(/C=C/C(C)(C)CC)oc3C)ccc2C[C@H]1C(=O)O.CC(C)(C)N | 760 |  | 77 | < 50 | 1200 | 16
C/C=C/C=C/C(=O)N1Cc2cc(OCCc3nc(/C(C)=C/CC)oc3C)ccc2C[C@H]1C(=O)O.CC(C)(C)N | 120 |  | 96 | < 50 | 4400 | 40
CC(C)(C)N.Cc1oc(/C=C/CCC(C)C)nc1CCOc1ccc2c(c1)CN(C(=O)/C=C/C=C/CO)[C@H](C(=O)O)C2 |  |  | 61 | < 50 | 3200 | 14
CC(C)(C)N.CCO/C=C/C(=O)N1Cc2cc(OCCc3nc(/C=C/CCC(C)C)oc3C)ccc2C[C@H]1C(=O)O | 20 |  | 101 | < 50 | 2550 | 33
